{
  "source": "patent US20150164916A1",
  "about": "“ROFLUMILAST COMPOSITIONS FOR THE TREATMENT OF COPD” (Forest Laboratories Holdings Ltd., priority 2012, published 2015)",
  "assay_type_in_all_cases": "cell-based, human",
  "key": {"IL-1β release": {"system": "IL-1β release", "experiment": "LPS-induced IL-1β release in isolated peripheral blood neutrophils (LUMINEX)", "details": "LPS (1 μg/ml), 6 h", "protocol": "(§1) Neutrophils and monocytes were isolated from peripheral venous blood by standard laboratory procedures. In brief, peripheral venous blood was mixed with dextran 500 at 3% (in 0.9% saline) in a proportion of 2:1. This mixture was incubated at room temperature for 30 min until erythrocytes were sedimented. The upper phase was carefully collected and added on Ficoll-Paque Histopaque 1077 (Amershan Pharmacia Biotech, Barcelona, Spain) density gradient in a proportion of 3:1. The two phases generated were centrifuged at 150 g, 4° C. for 30 min. Thus, the interface was collected to isolate monocytes, and the pellet obtained (which is consisted a mixture of neutrophils and low proportion of residual erythrocytes and traces of eosinophils and basophils) was resuspended in an erythrocyte lysis buffer (Biolegend, UK) for 5 min in ice. Cell suspension was washed two times with phosphate buffer (PBS).\n(§2) Peripheral neutrophil cell suspension was adjusted to 500×10^3 cells per well in 24-well plates and incubated in RPMI culture medium for 1 h into the incubator at 37° C., 5% CO2. […] Both the stimulus and drug were remained together for 6 h. Supernatants were collected and centrifuged at 120 g for 5 min, and the free-cell supernatant was used to measure IL-8, MMP-9, IL-1β, GM-CSF and CCL-5.\n(§3) IL-8 was determined by using commercially available enzyme-linked immunosorbent assay kit for IL-8 (R&D Systems, UK) according to the manufacturer's protocol. MMP-9, IL-1β, GM-CSF and CCL-5 were measured by LUMINEX technology according to the manufacturer's protocol.\n(§4) Data were presented as mean±SEM. IC50 values were calculated for each drug and their combinations. Statistical analysis of results was carried out by analysis of variance (ANOVA) followed by Bonferroni test, by Student's t test, or by non-parametric tests as appropriate (GraphPad Software Inc, San Diego, Calif., USA). Significance was accepted when P<0.05. For clinical correlations of lung function and gene expression from neutrophils the non-parametric Spearman correlation analysis was carried out."}, "PI3Kδ": {"system": "PI3Kδ", "experiment": "Real time RT-PCR of PI3Kδ expression in CSE-stimulated neutrophils from COPD patients", "details": "RNO 1 nM and 1 μM, DEX 1 μM, RNO 1 nM plus DEX 1 μM, NAC 1 mM, CSE 5%", "protocol": "Neutrophils and monocytes were isolated from peripheral venous blood by standard laboratory procedures. In brief, peripheral venous blood was mixed with dextran 500 at 3% (in 0.9% saline) in a proportion of 2:1. This mixture was incubated at room temperature for 30 min until erythrocytes were sedimented. The upper phase was carefully collected and added on Ficoll-Paque Histopaque 1077 (Amershan Pharmacia Biotech, Barcelona, Spain) density gradient in a proportion of 3:1. The two phases generated were centrifuged at 150 g, 4° C. for 30 min. […]\nCSE was prepared as previously outlined (Milara et al.; Ortiz et al.). […] The quality of the prepared CSE solution was assessed based on the absorbance at 320 nm, which is the specific absorption wavelength of peroxynitrite. Stock solutions with an absorbance value of 3.0±0.1 were used. […]\nTotal RNA was obtained from isolated neutrophils under basal conditions or after different drug and stimulation periods defined above by using TriPure® Isolation Reagent (Roche, Indianapolis, USA). […] Relative quantification of these transcripts was determined with the 2^−ΔΔCt method using glyceraldehyde phosphate dehydrogenase (GAPDH) as endogenous control (Applied Biosystems; 4352339E) and normalized to control group as previously described (Milara et al., 2009).\nThen, mRNA was isolated and quantified for different genes."}, "GM-CSF release": {"system": "GM-CSF release", "experiment": "LPS-induced GM-CSF release in isolated peripheral blood neutrophils (LUMINEX)", "details": "LPS (1 μg/ml), 6 h", "protocol": "as §1, with “The upper phase was carefully collected and added on Ficoll-Paque Histopaque 1077 (Amershan Pharmacia Biotech, Barcelona, Spain) density gradient in a proportion of 3:1.” left out\nas §2, §3, §4"}, "MMP-9 release": {"system": "MMP-9 release", "experiment": "LPS- or CSE-induced MMP-9 release in isolated peripheral blood neutrophils (LUMINEX)", "details": "6 h", "protocol": "as §1\nCSE was prepared as previously outlined (Milara et al.; Ortiz et al.). Briefly, the smoke of a research cigarette (2R4F; Tobacco Health Research, University of Kentucky, KY, USA) was generated by a respiratory pump (Apparatus Rodent Respirator 680; Harvard, Germany) through a puffing mechanism related to the human smoking pattern (3 puff/min; 1 puff 35 ml; each puff of 2 s duration with 0.5 cm above the filter) and was bubbled into a flask containing 25 ml of pre-warmed (37° C.) RPMI 1640 culture medium supplemented as describe above. The CSE solution was sterilized by filtration through a 0.22-μm cellulose acetate sterilizing system (Corning, N.Y.). The resultant CSE solution was considered to be 100% CSE and was used for experiments within 30 min of preparation. CSE 10% corresponds approximately to the exposure associated with smoking two packs per day (Su et al., 1998). The quality of the prepared CSE solution was assessed based on the absorbance at 320 nm, which is the specific absorption wavelength of peroxynitrite. Stock solutions with an absorbance value of 3.0±0.1 were used. To test for cytotoxicity from CSE, isolated neutrophils and monocytes were treated with CSE concentrations of up to 5% for 24.\nas §2, §3, §4"}, "[1]": {"details": "CSE 5%, neutrophils from COPD patients"}, "[2]": {"details": "CSE 5%, neutrophils from HEALTHY"}, "[3]": {"details": "LPS (1 μg/ml), neutrophils from COPD patients"}, "[4]": {"details": "LPS (1 μg/ml), neutrophils from HEALTHY"}},
  "data": [
    {"compound": "O=C(Nc1c(Cl)c[n+]([O-])cc1Cl)c1ccc(OC(F)F)c(OCC2CC2)c1", "note": "[RNO, roflumilast N-oxide]", "values": [
      {"measurement": "-log IC50, inhibition of IL-1β release", "setting": "IL-1β release; neutrophils from COPD patients", "value": "7.82 ± 0.21"},
      {"measurement": "Maximal % Inhibition of IL-1β release", "setting": "IL-1β release; neutrophils from COPD patients", "value": "66.69 ± 6.86", "unit": "%"},
      {"measurement": "-log IC50, inhibition of IL-1β release", "setting": "IL-1β release; neutrophils from HEALTHY", "value": "7.73 ± 0.22"},
      {"measurement": "Maximal % Inhibition of IL-1β release", "setting": "IL-1β release; neutrophils from HEALTHY", "value": "67.08 ± 6.63", "unit": "%"},
      {"measurement": "effect on CSE-induced PI3Kδ upregulation", "setting": "PI3Kδ", "value": "inhibited"},
      {"measurement": "-log IC50, inhibition of GM-CSF release", "setting": "GM-CSF release; neutrophils from COPD patients", "value": "8.10 ± 0.22"},
      {"measurement": "Maximal % Inhibition of GM-CSF release", "setting": "GM-CSF release; neutrophils from COPD patients", "value": "86.6 ± 8.04", "unit": "%"},
      {"measurement": "-log IC50, inhibition of GM-CSF release", "setting": "GM-CSF release; neutrophils from HEALTHY", "value": "8.25 ± 0.21"},
      {"measurement": "Maximal % Inhibition of GM-CSF release", "setting": "GM-CSF release; neutrophils from HEALTHY", "value": "78.87 ± 6.57", "unit": "%"},
      {"measurement": "-log IC50, inhibition of MMP-9 release", "setting": "MMP-9 release; [1]", "value": "8.76 ± 0.11"},
      {"measurement": "Maximal % Inhibition of MMP-9 release", "setting": "MMP-9 release; [1]", "value": "62.58 ± 2.28", "unit": "%"},
      {"measurement": "-log IC50, inhibition of MMP-9 release", "setting": "MMP-9 release; [2]", "value": "8.87 ± 5.6"},
      {"measurement": "Maximal % Inhibition of MMP-9 release", "setting": "MMP-9 release; [2]", "value": "64.8 ± 5.64", "unit": "%"},
      {"measurement": "-log IC50, inhibition of MMP-9 release", "setting": "MMP-9 release; [3]", "value": "7.64 ± 0.23"},
      {"measurement": "Maximal % Inhibition of MMP-9 release", "setting": "MMP-9 release; [3]", "value": "94.61 ± 11.82", "unit": "%"},
      {"measurement": "-log IC50, inhibition of MMP-9 release", "setting": "MMP-9 release; [4]", "value": "7.66 ± 0.22"},
      {"measurement": "Maximal % Inhibition of MMP-9 release", "setting": "MMP-9 release; [4]", "value": "98.9 ± 12.6", "unit": "%"}
    ]}
  ]
}
